This is an account of results in ChEMBL document CHEMBL1201862, “PubChem BioAssay data set” (2004).

The nature of experiment [1]: loss of viability in HepG2 cells – cell-based, CellTiter-Glo, cherry-picked, cytotoxicity control for Shn3 inhibitor project, dose response (AID 624134). The class given is functional. A general note: ATP-based viability assays read luminescence as a measure of living cells.
The subject of experiment [2] is A-375. The experiment can be described thus: MITF: Counter assay: A375 proliferation Measured in Cell-Based System Using Plate Reader - 2084-03_Inhibitor_Dose_DryPowder_Activity. [Related pubchem assays (depositor defined):AID488944]. The class given is functional. The settings on record: Homo sapiens.
A short description of experiment [3]: reduction of Shn3 3'UTR-driven luciferase in osteoblasts – cell-based, Clone20 osteoblasts, firefly luciferase, cherry-picked, dose response (AID 624132).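 Further: firefly luciferase luminescence from reporter carrying the Shn3 3'UTR in osteoblasts.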 The class given is functional.
Experiment [4] addresses T1, Microphthalmia-associated transcription factor (Homo sapiens, UniProt O75030).
T1 sequence (O75030 whole entry): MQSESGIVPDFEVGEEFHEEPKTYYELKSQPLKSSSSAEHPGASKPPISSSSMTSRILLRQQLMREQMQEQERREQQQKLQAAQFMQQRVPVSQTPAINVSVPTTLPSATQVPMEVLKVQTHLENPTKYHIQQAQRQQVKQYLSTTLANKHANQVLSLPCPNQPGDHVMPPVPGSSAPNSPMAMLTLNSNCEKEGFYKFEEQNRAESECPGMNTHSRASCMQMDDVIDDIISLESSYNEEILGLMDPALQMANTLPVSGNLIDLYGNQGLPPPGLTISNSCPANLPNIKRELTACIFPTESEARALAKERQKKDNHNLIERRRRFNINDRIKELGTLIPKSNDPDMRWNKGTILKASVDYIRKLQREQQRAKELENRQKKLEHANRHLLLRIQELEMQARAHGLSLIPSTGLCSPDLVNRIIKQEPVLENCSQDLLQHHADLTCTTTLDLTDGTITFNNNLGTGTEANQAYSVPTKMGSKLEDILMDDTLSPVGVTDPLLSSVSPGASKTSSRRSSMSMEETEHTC
Put plainly: reducers of TRPM1 reporter luminescence, concentration series – cell-based, SK-MEL-5, cherry-picked, set 3, MITF inhibitor project, dose response (AID 493073).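 Further: SK-MEL-5 melanoma cells with luciferase driven by the MITF target TRPM1 promoter.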 The class given is functional.

The target of experiment [5] is T2, Heat shock factor protein 1 (Mus musculus, UniProt P38532).
T2 sequence (P38532 whole entry): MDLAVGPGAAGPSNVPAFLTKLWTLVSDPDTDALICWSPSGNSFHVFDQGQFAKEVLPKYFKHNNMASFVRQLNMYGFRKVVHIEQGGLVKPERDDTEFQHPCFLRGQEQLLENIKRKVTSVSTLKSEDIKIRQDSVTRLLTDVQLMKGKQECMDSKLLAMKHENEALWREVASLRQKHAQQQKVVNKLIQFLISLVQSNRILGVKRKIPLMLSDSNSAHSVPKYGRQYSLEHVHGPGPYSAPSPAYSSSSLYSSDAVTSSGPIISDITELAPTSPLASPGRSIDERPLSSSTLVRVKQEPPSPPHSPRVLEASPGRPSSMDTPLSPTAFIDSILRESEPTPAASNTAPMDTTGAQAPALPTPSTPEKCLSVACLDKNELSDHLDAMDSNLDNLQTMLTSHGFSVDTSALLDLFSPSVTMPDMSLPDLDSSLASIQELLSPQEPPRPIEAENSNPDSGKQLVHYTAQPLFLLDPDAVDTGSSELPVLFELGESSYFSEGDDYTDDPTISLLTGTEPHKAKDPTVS
Put plainly: enhancement of HSF1-driven luciferase signal – cell-based, NIH3T3, luminescence, dose retest, confirmation (AID 435004).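 Further: stress induced by proteasome inhibitor MG132 added 30 min after compound; luciferase reporter driven by HSF1 response element in NIH3T3 cells; actives raise luminescence as potentiators of the MG132 stress response.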 The class given is functional.

The target in experiment [6] is E3 ubiquitin-protein ligase Mdm2 (Homo sapiens, UniProt Q00987). The experiment can be described thus: MDM2-luc reporter signal enhancers, multi-concentration potency testing, MDM2 ubiquitin-protein ligase inhibitor program, whole-cell format, luminescence detection, 384-well microplate (AID 1394).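 Further: MDM2 E3 inhibitors raise luminescence so EC50 is for signal enhancement.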 The class given is functional.
Experiment [7] in a line: non-specific 3'UTR reporter inhibition in Clone20-Shn3RL – cell-based, Renilla luciferase, cherry-picked, counter-screen for Shn3 inhibitor project, dose response (AID 624133). The class given is functional. In general terms: A counterscreen serves to expose hits that act by an unwanted route or on another target.
A short description of experiment [8]: HEK-293T viability loss after treatment – luminescence, T-cell screen hits, cytotoxicity control for TCR NF-kB inhibitor project, dose response (AID 489026).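 Further: cells exposed to compound about 14 hours before the viability readout.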 The class given is functional, cell-based.
Another experiment has as its system HeLa. Put plainly: ATP-based viability loss in HeLa cells – cell-based, CellTiter-Glo luminescence, cherry-pick samples, cytotoxicity control for MITF activator project, dose response (AID 540259). The class given is functional. The settings on record: Homo sapiens.
Experiment [9] concerns Streptococcus sp. 'group A'. Put plainly: Streptococcus pyogenes SK(-)GAS viability under kanamycin – luminescence, BacTiterGlo, confirmation, counter-screen for streptokinase expression inhibitor project, dose response (AID 1900). The class given is functional, organism-based.
The subject of another experiment is Streptococcus. Put plainly: GAS UMAA2166 growth inhibition – luminescence, BacTiterGlo, counter-screen for streptokinase expression inhibitor project, dose response (AID 1915).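 Further: potency for reduction of bacterial viability or growth.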 The class given is functional, organism-based.
In another experiment the target is T3, Streptokinase A (Streptococcus pyogenes serotype M1, UniProt P10520).
T3 sequence (P10520 whole entry): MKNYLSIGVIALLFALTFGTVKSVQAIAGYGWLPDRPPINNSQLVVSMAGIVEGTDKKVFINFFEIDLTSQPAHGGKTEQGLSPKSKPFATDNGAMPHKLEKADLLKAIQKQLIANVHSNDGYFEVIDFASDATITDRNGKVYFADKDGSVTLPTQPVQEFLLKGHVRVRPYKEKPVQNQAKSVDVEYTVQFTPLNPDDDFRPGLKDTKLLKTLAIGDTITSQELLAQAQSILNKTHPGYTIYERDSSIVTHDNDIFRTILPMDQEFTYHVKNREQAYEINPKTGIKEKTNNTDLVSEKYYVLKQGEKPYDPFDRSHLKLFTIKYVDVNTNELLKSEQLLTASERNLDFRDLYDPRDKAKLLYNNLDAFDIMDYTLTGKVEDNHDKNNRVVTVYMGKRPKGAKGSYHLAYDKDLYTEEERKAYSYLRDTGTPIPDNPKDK
The experiment can be described thus: viability-normalized secreted streptokinase activity reduction – plasminogen activation absorbance, OD405, dose response (AID 1914).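 Further: secreted streptokinase activity via plasminogen activation per viability signal from cell pellet.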 The class given is functional, Streptococcus pyogenes M1 GAS.

For experiment [10], the system named is Vero. Put plainly: cells. The settings on record: Chlorocebus sabaeus. The class given is functional, cell-based.
Experiment [11] has as its system Vero. The experiment can be described thus: cells. The class given is functional. The settings on record: Chlorocebus sabaeus.
Experiment [12] deals with A-375. Put plainly: proliferation inhibition in MITF-low A375 cells – cell-based, cherry-pick samples, set 2, counter-screen for MITF modulator project, dose response (AID 540335). The class given is functional. The note with it: Homo sapiens.
For experiment [13], the target named is T4, Long-chain-fatty-acid--AMP ligase FadD28 (Mycobacterium tuberculosis, UniProt P9WQ59).
T4 sequence (P9WQ59 whole entry): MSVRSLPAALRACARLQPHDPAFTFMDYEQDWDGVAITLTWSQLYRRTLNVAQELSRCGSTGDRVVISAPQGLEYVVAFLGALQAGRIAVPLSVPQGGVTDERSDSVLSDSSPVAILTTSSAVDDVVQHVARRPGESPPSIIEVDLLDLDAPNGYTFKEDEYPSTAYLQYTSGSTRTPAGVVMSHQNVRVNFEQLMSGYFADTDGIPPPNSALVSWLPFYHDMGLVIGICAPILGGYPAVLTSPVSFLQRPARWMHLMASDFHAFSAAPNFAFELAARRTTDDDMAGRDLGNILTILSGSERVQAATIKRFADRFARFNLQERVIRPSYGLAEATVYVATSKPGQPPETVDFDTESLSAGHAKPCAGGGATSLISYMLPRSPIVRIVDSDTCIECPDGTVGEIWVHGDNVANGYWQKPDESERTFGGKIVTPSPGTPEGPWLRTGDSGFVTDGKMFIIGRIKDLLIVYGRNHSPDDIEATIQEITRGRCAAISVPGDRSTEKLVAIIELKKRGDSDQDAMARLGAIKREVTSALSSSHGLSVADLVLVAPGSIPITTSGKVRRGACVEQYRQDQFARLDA
Put plainly: Fluorescence polarization aasay to screen for inhibitors that compete for the binding of FadD28 to a bisubstrate Measured in Biochemical System Using Plate Reader - 2147-01_Inhibitor_Dose_CherryPick_Activity. The class given is functional, Mycobacterium tuberculosis H37Rv. (In general: Polarisation of emitted light reports the rotation of a fluorescent probe.)

As a reminder, the AC50 is the concentration giving half of the maximal activity seen. Broadly, the EC50 is the concentration needed to bring the measured effect to its halfway point. The term IC50 denotes the concentration at which inhibition is half-maximal. One may read the CC50 as the concentration that lowers cell viability or growth by half.

The source made the active and inactive calls. Where only a bound is given, the exact number is not on record here.

Sequence of E3 ubiquitin-protein ligase Mdm2 (Q00987 whole entry): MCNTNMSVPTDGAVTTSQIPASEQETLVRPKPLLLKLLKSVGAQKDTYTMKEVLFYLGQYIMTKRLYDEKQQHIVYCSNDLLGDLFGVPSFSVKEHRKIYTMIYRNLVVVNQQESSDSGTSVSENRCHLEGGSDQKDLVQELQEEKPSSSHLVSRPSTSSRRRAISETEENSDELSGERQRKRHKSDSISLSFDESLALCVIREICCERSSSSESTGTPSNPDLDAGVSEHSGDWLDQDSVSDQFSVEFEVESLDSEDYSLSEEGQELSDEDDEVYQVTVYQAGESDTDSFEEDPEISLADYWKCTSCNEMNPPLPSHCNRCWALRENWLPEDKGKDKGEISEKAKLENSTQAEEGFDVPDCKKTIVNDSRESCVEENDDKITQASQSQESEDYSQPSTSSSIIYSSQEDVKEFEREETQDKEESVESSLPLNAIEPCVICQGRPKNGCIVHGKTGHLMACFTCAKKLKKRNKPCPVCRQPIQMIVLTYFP

Consider `O=C(/C=C/c1cccc([N+](=O)[O-])c1)n1cnc2ccccc21`, for which the AC50 in [1] is > 70 µM (inactive); in the experiment on A-375 [2] it was 28.2 µM (active); in [3], 0.594 µM (active); in experiment [4], 4.39 µM (active); in [7], 14.7 µM (active). The EC50 in [5] is 1.62 µM (inconclusive); in experiment [6] it was 1.68 µM (active). Further, the IC50 in experiment [8] was > 80 µM (inactive).

For the compound `O=C(NCCc1ccccc1)c1nccc2ccccc12`, in the experiment on HeLa, the AC50 was 68.6 µM (active).

Take `Cc1nc(N)sc1N=Nc1ccc(F)cc1`: in the experiment on HeLa, the AC50 is 79.5 µM (active). Besides, the concentration for a half-maximal effect (EC50) is 5.74 µM (active) in [9], > 150 µM (not active) in the experiment on Streptococcus and > 150 µM (not active) on Streptokinase A.

With `COc1ccc(C)c2sc(N(CCCN(C)C)C(=O)c3ccc4c(c3)OCCO4)nc12`, the half-maximal inhibitory concentration (IC50) in the experiment on Vero [10] was 24.2 µM (active).

Regarding `ClCCn1cnc2c(SCc3ccccc3)ncnc21`, in the experiment on Vero [11], the CC50 is > 25 µM (active). The half-maximal inhibitory concentration (IC50) in the experiment on Vero [10] was 2.03 µM (active).

Take `O=C(O)c1cc(N/N=C/C(Cl)=C/c2ccccc2)ccc1Cl`: the AC50 with A-375 [12] was > 11 µM (active); in the experiment with A-375 [2], > 11 µM (active); in experiment [4] it was 10.4 µM (active); in [13], 13.6 µM (active).
